Results on six compounds are retold here after patent US12691107B2, “Methods for the treatment and prevention of lung infections caused by gram-positive bacteria, fungus, or virus by administration of tafenoquine” (priority 2020, dated 2026).

Data set [1] concerns SARS-CoV-2. Briefly: microbe, parasite or virus in culture. The format is cell-based. The following applies: Severe acute respiratory syndrome coronavirus 2, Vero C1008, 96 h.
The nature of another data set: in vitro. The following applies: African green monkey.
Data set [2] concerns SARS-CoV-2. The following applies: cited from earlier work.
Data set [3] deals with SARS-CoV-2. Briefly: microbe, parasite or virus in culture. The format is cell-based.
The test system of a further data set is Emergomyces sp. Briefly: Antifungal MIC (RPMI-1640 microdilution). The format is cell-based. A general note: Dilution methods test growth across graded concentrations, often in twofold steps.
For the next data set, the system named is Candida auris. The experiment in a line: Antifungal MIC (RPMI-1640 microdilution). The format is cell-based. To be noted: Candidozyma auris.
Another data set relates to Candida glabrata. Briefly: Antifungal MIC (RPMI-1640 microdilution). The format is cell-based. To be noted: Nakaseomyces glabratus.
For the next data set, the system named is Scedosporium sp. The experiment in a line: Antifungal MIC (RPMI-1640 microdilution). The format is cell-based. The following applies: Scedosporium.
A further data set deals with Candida parapsilosis. The experiment in a line: Antifungal MIC (RPMI-1640 microdilution). The format is cell-based. To be noted: for MIC50: Lodderomyces parapsilosis.
The next data set has as its system Coccidioides sp. The experiment in a line: microbe, parasite or virus in culture. The format is cell-based.
In the next data set the test system is Cryptococcus neoformans. Briefly: Antifungal MIC (RPMI-1640 microdilution). The format is cell-based. The following applies: Cryptococcus neoformans.
For a further data set, the system named is Candida guilliermondii. The experiment in a line: Antifungal MIC (RPMI-1640 microdilution). The format is cell-based. The following applies: Meyerozyma guilliermondii.
The next data set has as its system Histoplasma capsulatum. Briefly: microbe, parasite or virus in culture. The format is cell-based.
Another data set relates to Blastomyces dermatitidis. The experiment in a line: Antifungal MIC (RPMI-1640 microdilution). The format is cell-based.
A further data set relates to Candida albicans. The experiment in a line: Antifungal MIC (RPMI-1640 microdilution). The format is cell-based.
The next data set concerns P. variotii. Briefly: Antifungal MIC (RPMI-1640 microdilution). The format is cell-based. To be noted: Paecilomyces variotii.
The subject of the next data set is C. krusei. Briefly: Antifungal MIC (RPMI-1640 microdilution). The following applies: Pichia kudriavzevii, ATCC6258, read-out: MIC 50% inhibition; isolate ATCC 6258. The format is cell-based.
The conditions of data set [4]: in vivo; cited from earlier work.
For the next data set, the system named is Babesia. The following applies: mice; cited from earlier work.
For data set [5], the system named is replicating Mycobacterium tuberculosis. The following applies: cited from earlier work.
Data set [6] deals with Para-Influenza-3 virus, Reovirus, Sindbis virus, Cocsackie B4 virus, Punto Toro virus and Yellow Fever Virus. The following applies: cited from earlier work.
For a further data set, the system named is Altenaria sp. The experiment in a line: Antifungal MIC (RPMI-1640 microdilution). The following applies: read-out: MIC 100% inhibition. The format is cell-based.
The subject of a further data set is Curvularia sp. The experiment in a line: Antifungal MIC (RPMI-1640 microdilution). The format is cell-based. The following applies: read-out: MIC 100% inhibition.
The next data set concerns Exserohilum sp. Briefly: Antifungal MIC (RPMI-1640 microdilution). The format is cell-based. The following applies: read-out: MIC 100% inhibition.
Another data set concerns Fusarium sp. The experiment in a line: Antifungal MIC (RPMI-1640 microdilution). The format is cell-based.
The test system of a further data set is Aspergillus fumigatus. Briefly: Antifungal MIC (RPMI-1640 microdilution). The format is cell-based.
In another data set the test system is Aspergillus flavus. The experiment in a line: Antifungal MIC (RPMI-1640 microdilution). The format is cell-based.

pEC50: −log10 of the molar value. Converted amounts (≈) assume the structure as drawn. Read-outs that look alike come from different tables or passages of the source. Some results are limits rather than exact numbers.

By pEC50 is commonly meant −log10 of the EC50, conventionally taken in molar units. In the data set with SARS-CoV-2 [1], `CCC(CC)COC(=O)[C@H](C)N[P@](=O)(OC[C@H]1O[C@@](C#N)(c2ccc3c(N)ncnn23)[C@H](O)[C@@H]1O)Oc1ccccc1` [Remdesivir] gave a pEC50 of 6.15. In the data set “in vitro”, this compound displayed a CC50 of over 100 µM.

For the compound `CCN(CCO)CCCC(C)Nc1ccnc2cc(Cl)ccc12` (centres unmarked) [Hydroxychloroquine], the inhibition at 33 µM in the data set with SARS-CoV-2 [1] (33 microM, 4-day assay, read-out: inhibition at the highest non-toxic concentration) turned out to be 43%. For the same compound, in the data set with SARS-CoV-2 [2], the “fold less potent in CALU-3 than in VERO cells” value is listed as 10 fold. The compound also gave a pEC50 in the data set on SARS-CoV-2 [3] (Severe acute respiratory syndrome coronavirus 2, Vero C1008, Vero E6, moi 0.05, 48 hours, TCID50) of 4.98. In addition, the selectivity index with SARS-CoV-2 [3] (calculated relative to the CC50 for the 4-day test) is reported as 5.3.

On to `OC(Cn1cncn1)(Cn1cncn1)c1ccc(F)cc1F` [Fluconazole], for which the MIC50 in the data set with Emergomyces sp. (read-out: MIC 50% inhibition, isolate Emerg2) is at most 0.03 µg/mL; in the data set on Emergomyces sp. (read-out: MIC 50% inhibition, isolate Emerg3), at most 0.03 µg/mL; with Candida auris (read-out: MIC 50% inhibition, isolate DI17-46) it was over 64 µg/mL; with Candida auris (read-out: MIC 50% inhibition, isolate DI17-47), over 64 µg/mL; in the data set with Candida auris (read-out: MIC 50% inhibition, isolate DI17-48), 2 µg/mL (≈ 6.53 µM); in the data set on Candida glabrata (read-out: MIC 50% inhibition, isolate 05-62), over 64 µg/mL. The MIC50 in the data set on Candida glabrata (read-out: MIC 50% inhibition, isolate 05-761) came to 8 µg/mL (≈ 26.1 µM); with Candida glabrata (read-out: MIC 50% inhibition, isolate CG3), 32 µg/mL (≈ 104 µM); in the data set on Scedosporium sp. (read-out: MIC 50% inhibition, isolate Scedo1) it was 0.125 µg/mL (≈ 0.408 µM); in the data set with Scedosporium sp. (read-out: MIC 50% inhibition, isolate 00-180) it was 0.125 µg/mL (≈ 0.408 µM); in the data set on Scedosporium sp. (read-out: MIC 50% inhibition, isolate LPI) it was 4 µg/mL (≈ 13.1 µM); in the data set on Candida parapsilosis (ATCC22019, read-out: MIC 50% inhibition, isolate ATCC 22019), 1 µg/mL (≈ 3.27 µM). Besides, the MIC50 came out at 0.5 µg/mL (≈ 1.63 µM) in the data set with Candida parapsilosis (read-out: MIC 50% inhibition, isolate CP1); 16 µg/mL (≈ 52.2 µM) in the data set with Coccidioides sp. (read-out: MIC 50% inhibition, isolate Cocci1); 32 µg/mL (≈ 104 µM) in the data set on Coccidioides sp. (read-out: MIC 50% inhibition, isolate Cocci2); 4 µg/mL (≈ 13.1 µM) with Coccidioides sp. (read-out: MIC 50% inhibition, isolate D117-143); 64 µg/mL (≈ 209 µM) in the data set with Cryptococcus neoformans (read-out: MIC 50% inhibition, isolate CN3); 16 µg/mL (≈ 52.2 µM) in the data set on Cryptococcus neoformans (read-out: MIC 50% inhibition, isolate H99). For the same compound, the MIC50 in the data set on Cryptococcus neoformans (read-out: MIC 50% inhibition, isolate USC1597) is 4 µg/mL (≈ 13.1 µM); with Candida guilliermondii (read-out: MIC 50% inhibition, isolate Cgui1), 1 µg/mL (≈ 3.27 µM); in the data set on Candida guilliermondii (read-out: MIC 50% inhibition, isolate Cgui2) it was 2 µg/mL (≈ 6.53 µM); in the data set on Candida guilliermondii (read-out: MIC 50% inhibition, isolate Cgui3) it was 2 µg/mL (≈ 6.53 µM); in the data set with Histoplasma capsulatum (read-out: MIC 50% inhibition, isolate HC1), 0.125 µg/mL (≈ 0.408 µM); in the data set with Histoplasma capsulatum (read-out: MIC 50% inhibition, isolate HC2), at most 0.03 µg/mL. The MIC50 in the data set with Histoplasma capsulatum (read-out: MIC 50% inhibition, isolate HC3) was at most 0.03 µg/mL; in the data set on Blastomyces dermatitidis (read-out: MIC 50% inhibition, isolate Blasto1) it was at most 0.03 µg/mL; in the data set with Blastomyces dermatitidis (read-out: MIC 50% inhibition, isolate Blasto2), at most 0.03 µg/mL; with Blastomyces dermatitidis (read-out: MIC 50% inhibition, isolate Blasto3) it was at most 0.03 µg/mL; with Candida albicans (ATCC90028, read-out: MIC 50% inhibition, isolate ATCC 90028), 0.25 µg/mL (≈ 0.816 µM); with Candida albicans (read-out: MIC 50% inhibition, isolate CA3), over 64 µg/mL. In addition, the MIC50 is 0.5 µg/mL (≈ 1.63 µM) with Candida albicans (read-out: MIC 50% inhibition, isolate SC5314); 8 µg/mL (≈ 26.1 µM) in the data set with P. variotii (read-out: MIC 50% inhibition, isolate MYA-3630); 32 µg/mL (≈ 104 µM) in the data set on C. krusei. Besides, the “MIC 50% inhibition” value against Candida parapsilosis (isolate CP2) and in the data set with Candida parapsilosis (isolate CP3) was 0.5 µg/mL (≈ 1.63 µM) in each case.

Take `COc1cc(NC(C)CCCN)c2ncccc2c1` (centres unmarked) [Primaquine]: in [4], the half-life entry is listed as “approximately 6 hours”. Further, in the data set with Babesia, the “dose clearing Babesia parasitemia” value is on record as 100 mg/kg. In addition, the MIC in data set [5] is reported as 256 microgram/ml. Moreover, the pEC50 in data set [6] was under 4.30.

Turning to `CCN(CC)CCCC(C)Nc1ccnc2cc(Cl)ccc12` (centres unmarked) [chloroquine], the “fold less potent in CALU-3 than in VERO cells” value in the data set with SARS-CoV-2 [2] was 10 fold.

`C[C@@H](c1ncncc1F)[C@](O)(Cn1cncn1)c1ccc(F)cc1F` [Voriconazole]: the MIC with Altenaria sp. was 2 µg/mL (≈ 5.73 µM); in the data set with Curvularia sp., 0.5 µg/mL (≈ 1.43 µM); with Exserohilum sp. it was 0.5 µg/mL (≈ 1.43 µM); in the data set with Fusarium sp. (read-out: MIC 100% inhibition, isolate FO1), 4 µg/mL (≈ 11.5 µM); in the data set with Fusarium sp. (read-out: MIC 100% inhibition, isolate FS2), over 16 µg/mL; in the data set on Fusarium sp. (read-out: MIC 100% inhibition, isolate FSI), 8 µg/mL (≈ 22.9 µM). The MIC with Aspergillus fumigatus (read-out: MIC 100% inhibition, isolate AF293) was 1 µg/mL (≈ 2.86 µM); in the data set with Aspergillus fumigatus (read-out: MIC 100% inhibition, isolate D115-106), over 16 µg/mL; with Aspergillus fumigatus (read-out: MIC 100% inhibition, isolate D115-116) it was 8 µg/mL (≈ 22.9 µM); in the data set on Aspergillus flavus (ATCC204304, read-out: MIC 100% inhibition, isolate ATCC 204304), 1 µg/mL (≈ 2.86 µM); with Aspergillus flavus (read-out: MIC 100% inhibition, isolate Aflav2), 2 µg/mL (≈ 5.73 µM); in the data set on Aspergillus flavus (read-out: MIC 100% inhibition, isolate Aflav3), 1 µg/mL (≈ 2.86 µM). In addition, the MIC in the data set on P. variotii (read-out: MIC 100% inhibition) came out at 0.125 µg/mL (≈ 0.358 µM).
